Results published in ChEMBL document CHEMBL5390253, “Discovery of Selective and Potent Macrocyclic CDK9 Inhibitors for the Treatment of Osimertinib-Resistant Non-Small-Cell Lung Cancer” (J Med Chem, 2023).

Experiments:
[1] = target: Cyclin-dependent kinase 2/cyclin E1 (Homo sapiens) (UniProt P24864+P24941); assay: Inhibition of CDK2/Cyclin E1 (unknown origin) at 200 nM preincubated for 10 mins followed by substrate addition and measured after 60 mins in presence of ATP by ADP-Glo reagent based assay relative to control; format: protein-complex assay; settings: time 70.0 min
NCI-H1975 [2] = assay: Downregulation of Mcl-1 level in human Osimertinib-resistant NCI-H1975 cell at 500 nM by Western blotting analysis; format: functional, cell-based; settings: time 2-12 hrs, TDE = time-dependent effect
[3] = Metabolic stability in rat liver microsomes assessed as half life at 10 uM measured at 5 to 60 mins by LC-MS/MS analysis; format: ADME, Microsome; settings: time 5-60 min
[4] = Induction of apoptosis in human Osimertinib-resistant NCI-H1975 cell assessed as early apoptotic cells at 125 nM measured after 16 hrs in presence of osimertinib by Annexin V-FITC and PI staining based analysis (Rvb =1.78%); format: functional
[5] = Toxicity in ICR mouse assessed as effect on physical appearance at 1000 mg/kg, po measured for 8 to 9 days; format: organism-based; settings: in vivo, time 8-9 day
[6] = target: CDK12/Cyclin K (Homo sapiens) (UniProt O75909+Q9NYV4); assay: Inhibition of CDK12/cyclin K (unknown origin) at 200 nM preincubated for 10 mins followed by substrate addition and measured after 60 mins in presence of ATP by ADP-Glo reagent based assay relative to control; format: protein-complex assay; settings: time 70.0 min
Sequence of CDK12/Cyclin K (Homo sapiens) (O75909 whole entry, looked up): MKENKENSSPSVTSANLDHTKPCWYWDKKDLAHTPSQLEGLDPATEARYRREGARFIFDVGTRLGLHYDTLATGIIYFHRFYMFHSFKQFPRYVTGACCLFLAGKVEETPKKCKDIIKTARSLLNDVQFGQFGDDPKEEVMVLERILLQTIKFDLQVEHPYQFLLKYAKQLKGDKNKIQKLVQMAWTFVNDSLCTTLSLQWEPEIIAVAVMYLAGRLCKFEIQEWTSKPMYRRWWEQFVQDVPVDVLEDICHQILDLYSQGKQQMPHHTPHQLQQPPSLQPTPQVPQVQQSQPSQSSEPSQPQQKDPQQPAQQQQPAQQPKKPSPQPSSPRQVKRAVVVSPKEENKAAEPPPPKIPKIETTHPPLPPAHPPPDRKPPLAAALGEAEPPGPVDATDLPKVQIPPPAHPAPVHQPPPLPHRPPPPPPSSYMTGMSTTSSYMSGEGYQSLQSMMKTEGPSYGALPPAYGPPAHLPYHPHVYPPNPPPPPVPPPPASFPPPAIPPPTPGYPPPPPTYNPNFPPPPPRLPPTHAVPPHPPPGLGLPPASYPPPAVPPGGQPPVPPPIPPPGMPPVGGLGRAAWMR
Sequence of CDK12/Cyclin K (Homo sapiens) (Q9NYV4 whole entry, looked up): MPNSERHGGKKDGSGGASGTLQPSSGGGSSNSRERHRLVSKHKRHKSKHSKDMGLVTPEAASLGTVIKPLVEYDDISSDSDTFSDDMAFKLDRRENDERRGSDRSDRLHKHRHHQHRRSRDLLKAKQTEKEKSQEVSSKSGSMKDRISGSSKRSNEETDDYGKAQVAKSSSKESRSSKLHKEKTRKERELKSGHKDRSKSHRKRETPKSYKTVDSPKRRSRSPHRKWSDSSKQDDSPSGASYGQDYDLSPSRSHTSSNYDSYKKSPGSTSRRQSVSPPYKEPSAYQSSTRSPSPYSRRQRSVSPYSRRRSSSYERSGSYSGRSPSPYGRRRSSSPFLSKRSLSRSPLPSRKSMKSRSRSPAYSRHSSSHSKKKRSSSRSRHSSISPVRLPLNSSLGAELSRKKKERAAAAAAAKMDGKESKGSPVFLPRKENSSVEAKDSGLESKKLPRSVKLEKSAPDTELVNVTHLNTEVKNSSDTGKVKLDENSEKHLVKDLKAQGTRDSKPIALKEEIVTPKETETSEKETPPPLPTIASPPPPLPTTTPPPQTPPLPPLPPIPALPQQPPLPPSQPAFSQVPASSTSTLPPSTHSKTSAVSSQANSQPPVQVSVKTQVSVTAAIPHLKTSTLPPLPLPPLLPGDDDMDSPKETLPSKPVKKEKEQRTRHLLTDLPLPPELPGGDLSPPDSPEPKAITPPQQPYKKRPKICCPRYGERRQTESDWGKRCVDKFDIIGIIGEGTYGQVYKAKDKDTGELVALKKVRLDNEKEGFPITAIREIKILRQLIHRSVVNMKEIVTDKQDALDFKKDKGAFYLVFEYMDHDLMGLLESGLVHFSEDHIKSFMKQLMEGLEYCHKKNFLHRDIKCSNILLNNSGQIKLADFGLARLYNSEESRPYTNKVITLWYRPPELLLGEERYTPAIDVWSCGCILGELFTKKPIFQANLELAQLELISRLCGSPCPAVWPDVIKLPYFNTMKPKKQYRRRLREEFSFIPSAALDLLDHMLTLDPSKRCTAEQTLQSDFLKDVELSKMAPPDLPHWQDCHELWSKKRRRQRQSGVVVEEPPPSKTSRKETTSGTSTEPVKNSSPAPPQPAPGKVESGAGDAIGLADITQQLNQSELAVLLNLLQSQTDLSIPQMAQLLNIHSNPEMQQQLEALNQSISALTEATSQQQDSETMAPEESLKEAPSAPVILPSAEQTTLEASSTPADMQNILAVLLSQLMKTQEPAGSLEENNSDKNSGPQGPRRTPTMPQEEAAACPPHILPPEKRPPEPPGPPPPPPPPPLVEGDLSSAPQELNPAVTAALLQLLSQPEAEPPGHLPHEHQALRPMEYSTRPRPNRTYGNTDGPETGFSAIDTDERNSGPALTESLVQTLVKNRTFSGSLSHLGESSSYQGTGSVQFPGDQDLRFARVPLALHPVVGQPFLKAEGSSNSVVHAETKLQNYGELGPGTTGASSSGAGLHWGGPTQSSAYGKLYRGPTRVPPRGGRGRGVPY

NCI-H1299 = assay: Antiproliferative activity against human NCI-H1299 cells incubated for 72 hrs by MTT assay; format: functional, cell-based; settings: NCI-H1299, 72 h
HCC827 = assay: Antiproliferative activity against human HCC827 cells incubated for 72 hrs by MTT assay; format: functional, cell-based; settings: HCC827, 72 h
[7] = Toxicity in ICR mouse assessed as abnormalities in lung at 1000 mg/kg, po measured after 9 days by H and E staining based analysis; format: organism-based; settings: in vivo, 216 h, time 9 day
[8] = Induction of apoptosis in human Osimertinib-resistant NCI-H1975 cell assessed as necrotic cells at 2000 nM measured after 16 hrs by Annexin V-FITC and PI staining based analysis (reference value: 0.50%); format: functional
[9] = test system: Osimertinib-resistant HCC827AR cell; assay: Inhibition of cell growth in 3D-cultured human Osimertinib-resistant HCC827 cell by DAPI and PI staining based analysis; format: functional; settings: dose 0.049-3.125 µM
CDK2/Cyclin A2 = CDK2/Cyclin A2 (Homo sapiens, UniProt P24941); assay: Inhibition of CDK2/Cyclin A2 (unknown origin) preincubated for 10 mins followed by substrate addition and measured after 60 mins in presence of ATP by ADP-Glo reagent based assay; format: protein-complex assay
[10] = Inhibition of colony formation in human Osimertinib-resistant NCI-H1975 cell assessed as inhibition of cell growth at 125 nM measured after 2 weeks by crystal violet staining based analysis relative to control; format: functional; settings: NCI-H1975, 336 h
[11] = Toxicity in ICR mouse assessed as abnormalities in liver at 1000 mg/kg, po measured after 9 days by H and E staining based analysis; format: organism-based; settings: in vivo, 216 h, time 9 day
[12] = Antitumor activity against patient derived #2862 lung cancer organoid assessed as inhibition of growth measured after 4 days; format: functional, tissue-based; settings: Homo sapiens, 96 h
NCI-H1975 [13] = assay: Antiproliferative activity against human NCI-H1975 cells incubated for 72 hrs by MTT assay; format: functional, cell-based; settings: NCI-H1975, 72 h
[14] = Toxicity in ICR mouse assessed as morphological changes in kidney at 1000 mg/kg, po measured after 9 days by H and E staining based analysis; format: organism-based; settings: in vivo, 216 h, time 9 day
[15] = Antitumor activity against patient derived #2566 lung cancer organoid assessed as inhibition of growth measured after 4 days; format: functional, tissue-based; settings: Homo sapiens, 96 h

inhibition [1]: 44.7%
half-life at 10 µM [3]: 6.8 min
inhibition [6]: 56.4%
IC50 (NCI-H1299): 85 nM
IC50 (HCC827): 315 nM
IC50 (CDK2/Cyclin A2): 209 nM
IC50 (NCI-H1975 [13]): 174 nM
SMILES: O=C(NCCN1CCOCC1)c1ccc2cc1OCCCCCCOc1cc(ccc1F)-c1nc(ncc1F)N2
Activity (NCI-H1975 [2]): Tde
Activity [4]: 3.15%
Activity [5]: Non-Toxic
Activity [7]: Non-Toxic
Activity [8]: 1.97%
inhibition [9]: Dose-Dependent Effect
inhibition at 0.125 µM [10]: 100%
Activity [11]: Non-Toxic
IC50 [12]: 940 nM
Activity [14]: Non-Toxic
IC50 [15]: < 20 nM
